The record followed here is ChEMBL document CHEMBL1157764, “Conserved high activity binding peptides are involved in adhesion of two detergent-resistant membrane-associated merozoite proteins to red blood cells during invasion” (J Med Chem, 2010).

The experiment is filed under the species Homo sapiens. Nature of the experiment: Binding affinity to RBC membrane receptor in human RBCs assessed as specific binding activity measured as ratio of specifically bound peptide/added peptide by gamma counter.

As to `CC[C@H](C)[C@H](NC(=O)[C@H](CC(=O)O)NC(=O)[C@H](CCCCN)NC(=O)[C@H](CCCNC(=N)N)NC(=O)[C@H](Cc1ccccc1)NC(=O)[C@H](CCCNC(=N)N)NC(=O)[C@@H](NC(=O)[C@@H](NC(=O)[C@@H]1CCCN1C(=O)[C@H](CC(C)C)NC(=O)CN)[C@H](C)O)[C@@H](C)CC)C(=O)N[C@@H](CO)C(=O)N[C@H](C(=O)N[C@@H](CCC(=O)O)C(=O)N[C@@H](CC(N)=O)C(=O)N[C@@H](CC(C)C)C(=O)N[C@H](C(=O)N[C@@H](Cc1ccc(O)cc1)C(=O)N[C@@H](CC(C)C)C(=O)N[C@@H](CC(N)=O)C(=O)O)[C@@H](C)O)C(C)C`, the Activity was greater than 2%.
Next, `CC[C@H](C)[C@H](NC(=O)[C@H](Cc1ccc(O)cc1)NC(=O)[C@H](CCCCN)NC(=O)[C@H](CC(N)=O)NC(=O)[C@@H](N)CCCCN)C(=O)N[C@@H](CO)C(=O)N[C@@H](CC(C)C)C(=O)N[C@@H](Cc1ccc(O)cc1)C(=O)N[C@@H](CC(N)=O)C(=O)N[C@@H](CCCCN)C(=O)N[C@H](C(=O)N[C@@H](CCCCN)C(=O)N[C@H](C(=O)N[C@H](C(=O)N[C@@H](CCSC)C(=O)N1CCC[C@H]1C(=O)N[C@@H](CCC(=O)O)C(=O)N[C@@H](CC(C)C)C(=O)N[C@@H](Cc1ccccc1)C(=O)N[C@@H](CC(=O)O)C(=O)O)[C@@H](C)O)[C@H](C)O)C(C)C`: greater than 2%.
For the molecule `CC[C@H](C)[C@H](N)C(=O)N[C@@H](CCCCN)C(=O)N[C@@H](Cc1ccc(O)cc1)C(=O)N[C@H](C(=O)N[C@@H](CCC(=O)O)C(=O)N[C@@H](Cc1ccccc1)C(=O)N[C@@H](Cc1ccccc1)C(=O)N[C@@H](CCC(=O)O)C(=O)N[C@@H](CO)C(=O)N[C@@H](CC(N)=O)C(=O)N[C@@H](Cc1ccc(O)cc1)C(=O)N[C@@H](CC(N)=O)C(=O)N[C@@H](CCCNC(=N)N)C(=O)N[C@@H](CC(C)C)C(=O)N[C@@H](CCCCN)C(=O)N[C@@H](CCCNC(=N)N)C(=O)N[C@@H](CO)C(=O)N[C@@H](Cc1ccccc1)C(=O)N[C@@H](CCC(N)=O)C(=O)N[C@@H](CCCCN)C(=O)O)[C@@H](C)O`, the Activity was less than 2%.
For the molecule `CC[C@H](C)[C@H](NC(=O)[C@H](CC(C)C)NC(=O)[C@@H](N)C(C)C)C(=O)N[C@@H](C)C(=O)N[C@@H](CCC(=O)O)C(=O)NCC(=O)N[C@@H](Cc1ccc(O)cc1)C(=O)N[C@@H](CCCCN)C(=O)N[C@@H](CCCNC(=N)N)C(=O)N[C@H](C(=O)N[C@@H](CC(N)=O)C(=O)N[C@@H](CCC(=O)O)C(=O)N[C@@H](CCCCN)C(=O)N[C@@H](CCC(=O)O)C(=O)N[C@@H](CC(=O)O)C(=O)N[C@H](C(=O)N[C@@H](CC(=O)O)C(=O)N[C@@H](CCCNC(=N)N)C(=O)N[C@@H](CCCNC(=N)N)C(=O)O)[C@@H](C)CC)[C@@H](C)CC`, the Activity is greater than 2%.
The same measure for H-KETQEKSDQEPSQNIQEDNSY-OH: greater than 2%.
On to H-NEQDENVKGMSSSQEMNSNNY-OH, for which the Activity was greater than 2%.
Next, `CC[C@H](C)[C@H](NC(=O)[C@H](Cc1ccccc1)NC(=O)[C@H](CC(C)C)NC(=O)[C@H](CC(C)C)NC(=O)[C@H](CC(C)C)NC(=O)[C@H](CC(C)C)NC(=O)[C@@H](NC(=O)[C@@H](NC(=O)[C@H](CC(C)C)NC(=O)[C@H](CC(C)C)NC(=O)[C@H](C)NC(=O)[C@H](CC(N)=O)NC(=O)[C@H](CO)NC(=O)[C@H](CCSC)NC(=O)[C@H](C)NC(=O)[C@H](Cc1ccccc1)NC(=O)[C@@H](N)Cc1ccccc1)C(C)C)[C@@H](C)CC)C(=O)N[C@@H](CCC(=O)O)C(=O)N[C@@H](Cc1ccccc1)C(=O)N[C@@H](CC(C)C)C(=O)N[C@@H](Cc1ccc(O)cc1)C(=O)O`: greater than 2%; H-EKKDVKVSGNNNIAVVYSIF-OH: greater than 2%.
Next, `CC[C@H](C)[C@H](NC(=O)[C@H](CCCCN)NC(=O)[C@H](CCCNC(=N)N)NC(=O)[C@@H]1CCCN1C(=O)[C@@H](NC(=O)[C@@H](NC(=O)[C@H](CCCCN)NC(=O)[C@@H](NC(=O)[C@H](CCCCN)NC(=O)[C@@H](NC(=O)[C@@H](NC(=O)[C@@H](N)Cc1ccc(O)cc1)C(C)C)[C@@H](C)CC)[C@@H](C)CC)[C@@H](C)O)C(C)C)C(=O)N[C@@H](CCC(N)=O)C(=O)N[C@@H](CS)C(=O)N[C@@H](CCC(=O)O)C(=O)N[C@@H](CC(C)C)C(=O)N[C@@H](CC(N)=O)C(=O)N[C@H](C(=O)N[C@@H](CC(N)=O)C(=O)N[C@@H](CC(=O)O)C(=O)O)[C@@H](C)O`: greater than 2%; `CC[C@H](C)[C@H](NC(=O)[C@H](CO)NC(=O)[C@H](CCCNC(=N)N)NC(=O)[C@@H](NC(=O)[C@@H](NC(=O)[C@@H](N)CCC(N)=O)[C@@H](C)O)[C@@H](C)CC)C(=O)N[C@@H](C(=O)N[C@@H](CC(C)C)C(=O)N[C@@H](CC(C)C)C(=O)N[C@@H](CS)C(=O)N[C@@H](CO)C(=O)N[C@@H](CC(N)=O)C(=O)N[C@@H](CC(C)C)C(=O)N[C@@H](Cc1cnc[nH]1)C(=O)N[C@@H](CC(=O)O)C(=O)N[C@@H](Cc1c[nH]c2ccccc12)C(=O)N[C@@H](CCCCN)C(=O)N[C@@H](CC(C)C)C(=O)N[C@@H](Cc1ccccc1)C(=O)N[C@@H](CS)C(=O)N[C@@H](Cc1ccc(O)cc1)C(=O)O)[C@@H](C)CC`: greater than 2%; H-SDIFFKYNPSENIMDHQEMV-OH: greater than 2%.
For the molecule H-VSKFDNNKTIGFVCPVKSSY-OH, the Activity was greater than 2%.
As for `CC(C)[C@H](NC(=O)[C@H](CC(=O)O)NC(=O)[C@H](CC(=O)O)NC(=O)[C@H](CC(=O)O)NC(=O)[C@H](CO)NC(=O)[C@H](CCC(=O)O)NC(=O)[C@H](CC(N)=O)NC(=O)[C@H](CC(=O)O)NC(=O)[C@H](CCC(N)=O)NC(=O)[C@H](CC(N)=O)NC(=O)[C@H](CCCCN)NC(=O)[C@H](CC(N)=O)NC(=O)[C@H](CCC(=O)O)NC(=O)[C@@H](N)CC(=O)O)C(=O)N[C@@H](CC(N)=O)C(=O)N[C@@H](CC(N)=O)C(=O)N[C@@H](CC(N)=O)C(=O)N[C@@H](CC(N)=O)C(=O)N[C@@H](CC(N)=O)C(=O)N[C@@H](CC(N)=O)C(=O)N[C@@H](Cc1ccc(O)cc1)C(=O)N[C@@H](CC(N)=O)C(=O)N[C@@H](CC(N)=O)C(=O)N[C@@H](CC(=O)O)C(=O)N[C@@H](CC(=O)O)C(=O)O`, the Activity was greater than 2%.
As for H-NKTDNGSSFFFAMSNALLVIY-OH, the Activity was greater than 2%.
Next, H-NYKSTYCVLSNNYRIVVEFD-OH: greater than 2%; H-ISLLLNKKYDSFEIKDVLED-OH: greater than 2%.
Next, H-YMREIRLLGKCMLSFDEGNN-OH: greater than 2%.
As for H-KYILVCENHSQNYINVVDQE-OH, the Activity is greater than 2%.
In the case of H-TYHLAIVKNEDKLQLAFTYD-OH, the Activity was greater than 2%.
The same measure for H-SEEANDENKDNMQTTTDEGTY-OH: greater than 2%; for H-GTAMESLLYLNNNNVKKLID-OH: greater than 2%.
